Laboratory results: patent publication US6117645A, “Human LH-RH receptor expression cells and use thereof” (Takeda Chemical Industries, Ltd., priority 1994, dated 2000)

Target: T1, human LH-RH receptor (Homo sapiens, UniProt P30968)
T1 construct: cell membrane fraction or whole cells
T1 sequence (P30968 1-328): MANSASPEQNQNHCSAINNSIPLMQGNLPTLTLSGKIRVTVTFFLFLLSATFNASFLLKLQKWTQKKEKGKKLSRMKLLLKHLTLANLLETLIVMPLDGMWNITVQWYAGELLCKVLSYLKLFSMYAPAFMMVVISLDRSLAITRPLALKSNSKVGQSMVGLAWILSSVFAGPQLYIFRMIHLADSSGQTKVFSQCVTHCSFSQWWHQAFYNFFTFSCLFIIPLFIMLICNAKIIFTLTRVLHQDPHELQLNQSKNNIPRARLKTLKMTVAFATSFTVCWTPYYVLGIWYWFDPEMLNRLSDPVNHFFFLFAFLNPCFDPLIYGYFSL
Test: [125I]-leuprorelin binding inhibition, CHO cell membrane fraction
Settings: 2 μl of 2 mM compound in 60% DMSO added to 188 μl of 200 μg/ml membrane fraction with 10 μl of 3.6 nM [125I]-leuprorelin; 25° C., 60 minutes
Description: The human LH-RH receptor expression cells (10^9 cells) obtained in Example 2 were suspended in phosphate buffered saline containing 5 mM EDTA (PBS-EDTA), and centrifuged at 100×g for 5 minutes. To cell pellets, 10 ml of a cell homogenating buffer (10 mM NaHCO3, 5 mM EDTA, pH 7.5) was added, followed by homogenization with a Polytron homogenizer. After centrifugation at 400×g for 15 minutes, the supernatant was placed in an ultracentrifugal tube, and centrifuged at 100,000×g for 1 hour to obtain a cell membrane fraction precipitate. This precipitate was suspended in 2 ml of an assay buffer, and centrifuged at 100,000×g for 1 hour. The cell membrane fraction recovered as a precipitate was suspended in 20 ml of the assay buffer again. The suspension was dispensed and stored at -80° C. It was defrosted at every time of use. […]
Using the human LH-RH receptor expression CHO cell membrane fraction, reaction was conducted at 25° C. for 60 minutes. […] After the filtration, the radioactivity of [^125 I]-leuprorelin left on the filter was measured with a gamma-ray counter.
The binding inhibition rate of each sample to be tested was determined according to the following equation: [formula] wherein SB represents the radioactivity when the compound is added, TB represents the maximum binding radioactivity, and NSB represents the non-specific binding radioactivity.

Structure (SMILES): CCOC(=O)c1cn(Cc2ccccc2OC)c2sc(-c3ccc(OC)cc3)c(C)c2c1=O [Reference Example 9]
- inhibition at 2000 µM (stock): 67%
